Measured values as given in patent US20250195536A1, “BICYCLOOCTANE KRAS INHIBITORS” (Incyte Corporation, priority 2023, published 2025).

What was measured:
[1] = target: KRAS G12V (Homo sapiens, UniProt P01116, G12V); test: GDP-GTP exchange assay (KRAS G12V); type: biochemical; settings: bodipy-GDP/GppNHp exchange with SOS1; 3 h incubation after GppNHp-SOS1;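 further: one dagger IC50 up to 100 nM and two daggers above 100 nM up to 1 μM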
Description: (§1) The inhibitor potency of the exemplified compounds was determined in a fluorescence based guanine nucleotide exchange assay, which measures the exchange of bodipy-GDP (fluorescently labeled GDP) for GppNHp (Non-hydrolyzable GTP analog) to generate the active state of KRAS in the presence of SOS1 (guanine nucleotide exchange factor). Inhibitors were serially diluted in DMSO and a volume of 0.1 μL was transferred to the wells of a black low volume 384-well plate. 5 μL/well volume of bodipy-loaded KRAS G12D diluted to 2.5 nM in assay buffer (25 mM Hepes pH 7.5, 50 mM NaCl, 10 mM MgCl2 and 0.01% Brij-35) was added to the plate and pre-incubated with inhibitor for 4 h at r.t. Appropriate controls (enzyme with no inhibitor or with a G12D inhibitor) were included on the plate. The exchange was initiated by the addition of a 5 μL/well volume containing 1 mM GppNHp and 300 nM SOS1 in assay buffer. The 10 μL/well reaction concentration of the bodipy-loaded KRAS G12D, GppNHp, and SOS1 were 2.5 nM, 500 μM, and 150 nM, respectively. The reaction plates were incubated at r.t. for 2 h, a time estimated for complete GDP-GTP exchange in the absence of inhibitor. For the KRAS G12V mutant, similar guanine nucleotide exchange assays were used with 2.5 nM as final concentration for the bodipy loaded KRAS proteins and 3 h incubation after adding GppNHp-SOS1 mixture. A cyclic peptide described to selectively bind G12D mutant (Sakamoto et al., BBRC 484.3 (2017), 605-611) or internal compounds with confirmed binding were used as positive controls in the assay plates. Fluorescence intensities were measured on a PheraStar plate reader instrument (BMG Labtech) with excitation at 485 nm and emission at 520 nm.
(§2) Either GraphPad prism or Genedata Screener SmartFit was used to analyze the data. The IC50 values were derived by fitting the data to a four parameter logistic equation producing a sigmoidal dose-response curve with a variable Hill coefficient.
(§3) The symbol “⬆” indicates IC50 100 nM, “⬆⬆” indicates IC50 >100 nM but ≤1 μM; and “⬆⬆⬆” indicates IC50 is >1 μM but ≤5 μM, “⬆⬆⬆⬆” indicates IC50 is >5 μM but ≤10 μM. “NA” indicates IC50 not available.

[2] = Caco2 assay (permeability, Papp A-B); type: in vitro ADME; settings: human, Caco-2, absorptive direction (A-B), 50 μM test compound, 4% BSA in receiver
Description: Caco-2 cells are grown at 37° C. in an atmosphere of 5% CO2 in DMEM growth medium supplemented with 10% (v/v) fetal bovine serum, 1% (v/v) nonessential amino acids, penicillin (100 U/mL), and streptomycin (100 μg/mL). Confluent cell monolayers are subcultured every 7 days or 4 days for Caco-2 by treatment with 0.05% trypsin containing […]. Caco-2 cells are seeded in 96-well Transwell plates. The seeding density for Caco-2 cells is 14,000 cells/well. DMEM growth medium is replaced every other day after seeding. Cell monolayers are used for transport assays between 22 and 25 days for Caco-2 cells.
Cell culture medium is removed and replaced with HBSS. To measure the TEER, the HBSS is added into the donor compartment (apical side) and receiver compartment (basolateral side). The TEER is measured by using a REMS Autosampler to ensure the integrity of the cell monolayers. Caco-2 cell monolayers with TEER values 300 Ω·cm^2 are used for transport experiments. To determine the Papp in the absorptive direction (A-B), solution of test compound (50 μM) in HBSS is added to the donor compartment (apical side), while HBSS solution with 4% BSA is added to the receiver compartment (basolateral side). The apical volume was 0.075 mL, and the basolateral volume is 0.25 mL. The incubation period is 120 min. at 37° C. in an atmosphere of 5% CO2. At the end of the incubation period, samples from the donor and receiver sides are removed and an equal volume of MeCN is added for protein precipitation. The supernatants are collected after centrifugation (3000 rpm, Allegra X-14R Centrifuge from Beckman Coulter, Indianapolis, IN) for LCMS analysis. The permeability value is determined according to the equation:
Papp(cm/s)=(F*VD)/(SA*MD),
where the flux rate (F, mass/time) is calc. from the slope of cumulative amounts of compound of interest on the receiver side, SA is the surface area of the cell membrane, VD is the donor volume, and MD is the initial amount of the solution in the donor chamber.
The symbol “+” indicates a Caco-2 value of ≤0.5, “++” indicates a Caco-2 value of >0.5 but ≤1; and “+++” indicates a Caco-2 value of >1. “NA” indicates Caco-2 value not available.

[3] = target: KRAS G12D (Homo sapiens, UniProt P01116, G12D); test: GDP-GTP exchange assay (KRAS G12D); type: biochemical; settings: bodipy-GDP/GppNHp exchange with SOS1; 4 h pre-incubation, 2 h reaction;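 further: one dagger IC50 up to 100 nM and two daggers above 100 nM up to 1 μM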
KRAS G12D, sequence (P01116 1-188 isoform P01116-2 G12D): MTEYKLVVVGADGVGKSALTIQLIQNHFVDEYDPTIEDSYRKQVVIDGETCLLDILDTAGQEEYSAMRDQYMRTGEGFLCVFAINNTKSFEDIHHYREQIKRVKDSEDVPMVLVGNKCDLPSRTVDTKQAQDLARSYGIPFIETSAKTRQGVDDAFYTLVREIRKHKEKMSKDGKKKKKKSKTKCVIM
Description: as §1, §2, §3

KRAS G12V, sequence (P01116 1-188 isoform P01116-2 G12V): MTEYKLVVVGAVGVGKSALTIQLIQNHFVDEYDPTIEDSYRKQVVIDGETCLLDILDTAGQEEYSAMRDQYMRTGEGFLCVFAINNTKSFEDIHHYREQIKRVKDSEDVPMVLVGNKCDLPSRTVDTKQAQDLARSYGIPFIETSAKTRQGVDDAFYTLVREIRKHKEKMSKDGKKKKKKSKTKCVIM

Row | SMILES | G12V_exchange (KRAS_G12V exchange assay IC50) [1] | Papp A→B at 120 min, 50 μM [2] | G12D_exchange (KRAS_G12D exchange assay IC50) [3]
1 | COC(=O)N1[C@@H]2C[C@@H](CN(c3nccnc3OC)C2)[C@@H]1c1cc2c(C)nc3c(F)c(-c4cccc(Cl)c4Cl)c(CCC#N)cc3c2n1[C@H]1[C@H]2CN[C@@H]1C2 (atropisomer, axis not shown; (Ra)) [Example 125, Methyl (1 S,5R,7R)-7-((Ra)-1-((1R,4R,5S)-2-azabicyclo[2.1.1]hexan-5-yl)-8-(2-cyanoethyl)-7-(2,3-dichlorophenyl)-6-fluoro-4-methyl-1H-pyrrolo[3,2-c]quinolin-2-yl)-3-(3-methoxypyrazin-2-yl)-3,6-diazabicyclo[3.2.1]octane-6-carboxylate] | † | > 1 ×10⁻⁶ cm/s | –
2 | COC(=O)N1[C@@H]2C[C@@H](CN(c3cnc(C#N)cn3)C2)[C@@H]1c1cc2c(C)nc3c(F)c(-c4cccc(Cl)c4Cl)c(CCC#N)cc3c2n1[C@H]1[C@H]2CN[C@@H]1C2 (atropisomer, axis not shown; (Ra)) [Example 127, Methyl (1 S,5R,7R)-7-((Ra)-1-((1R,4R,5S)-2-azabicyclo[2.1.1]hexan-5-yl)-8-(2-cyanoethyl)-7-(2,3-dichlorophenyl)-6-fluoro-4-methyl-1H-pyrrolo[3,2-c]quinolin-2-yl)-3-(5-cyanopyrazin-2-yl)-3,6-diazabicyclo[3.2.1]octane-6-carboxylate] | † | ≤ 0.5 ×10⁻⁶ cm/s | –
3 | Cc1nc2c(F)c(-c3cccc(Cl)c3Cl)c(CCC#N)cc2c2c1cc([C@H]1[C@H]3C[C@H](CN(c4cnc5cccnc5c4)C3)N1C(=O)C1CC1)n2[C@H]1[C@H]2CN[C@@H]1C2 (atropisomer, axis not shown; (Ra)) [Example 6, 3-((Ra)-1-((1R,4R,5S)-2-azabicyclo[2.1.1]hexan-5-yl)-2-((1S,5R,7R)-6-(cyclopropanecarbonyl)-3-(1,5-naphthyridin-3-yl)-3,6-diazabicyclo[3.2.1]octan-7-yl)-7-(2,3-dichlorophenyl)-6-fluoro-4-methyl-1H-pyrrolo[3,2-c]quinolin-8-yl)propanenitrile] | † | – | †
4 | Cc1nc2c(F)c(-c3cccc(Cl)c3Cl)c(CCC#N)cc2c2c1cc([C@H]1[C@H]3C[C@H](CN(c4ccc(C(F)(F)F)cc4)C3=O)N1C(=O)C1CC1)n2[C@H]1[C@H]2CN[C@@H]1C2 (atropisomer, axis not shown; (Ra)) [Example 120a, 3-((Ra)-1-((1R,4R,5S)-2-Azabicyclo[2.1.1]hexan-5-yl)-2-((1R,5R,7R)-6-(cyclopropanecarbonyl)-2-oxo-3-(4-(trifluoromethyl)phenyl)-3,6-diazabicyclo[3.2.1]octan-7-yl)-7-(2,3-dichlorophenyl)-6-fluoro-4-methyl-1H-pyrrolo[3,2-c]quinolin-8-yl)propanenitrile] | † | – | ††
5 | Cc1nc2c(F)c(-c3cccc(Cl)c3Cl)c(CCC#N)cc2c2c1cc([C@H]1[C@H]3C[C@H](CN(c4ccnc(C#N)c4)C3)N1C(=O)C1CC1)n2[C@H]1[C@H]2CN[C@@H]1C2 (atropisomer, axis not shown; (Ra)) [Example 63, 4-((1S,5R,7R)-7-((Ra)-1-((1R,4R,5S)-2-azabicyclo[2.1.1]hexan-5-yl)-8-(2-cyanoethyl)-7-(2,3-dichlorophenyl)-6-fluoro-4-methyl-1H-pyrrolo[3,2-c]quinolin-2-yl)-6-(cyclopropanecarbonyl)-3,6-diazabicyclo[3.2.1]octan-3-yl)picolinonitrile] | † | – | †
6 | Cc1nc2c(F)c(-c3cccc(Cl)c3Cl)c(CCC#N)cc2c2c1cc([C@H]1[C@H]3C[C@H](CN(c4cccc(=O)n4C)C3)N1C(=O)C1CC1)n2[C@H]1[C@H]2CN[C@@H]1C2 (atropisomer, axis not shown; (Ra)) [Example 57, 3-((Ra)-1-((1R,4R,5S)-2-azabicyclo[2.1.1]hexan-5-yl)-2-((1S,5R,7R)-6-(cyclopropanecarbonyl)-3-(1-methyl-6-oxo-1,6-dihydropyridin-2-yl)-3,6-diazabicyclo[3.2.1]octan-7-yl)-7-(2,3-dichlorophenyl)-6-fluoro-4-methyl-1H-pyrrolo[3,2-c]quinolin-8-yl)propanenitrile] | † | – | ††
7 | [2H]C1([2H])[C@@H]2C[C@H](CN1c1ncc(C(C)C)s1)N(C(=O)C1CC1)[C@H]2c1cc2c(C)nc3c(F)c(-c4cccc(Cl)c4Cl)c(CCC#N)cc3c2n1[C@H]1[C@H]2CN[C@@H]1C2 (atropisomer, axis not shown; (Ra)) [Example 123, 3-((Ra)-1-((1R,4R,5S)-2-Azabicyclo[2.1.1]hexan-5-yl)-2-((1 S,5R,7R)-6-(cyclopropanecarbonyl)-3-(5-isopropylthiazol-2-yl)-3,6-diazabicyclo[3.2.1]octan-7-yl-2,2-d2)-7-(2,3-dichlorophenyl)-6-fluoro-4-methyl-1H-pyrrolo[3,2-c]quinolin-8-yl)propanenitrile] | † | – | ††
8 | COc1nccc(N2C[C@@H]3C[C@H](C2)N(C(=O)C2CC2)[C@H]3c2cc3c(C)nc4c(F)c(-c5cccc(Cl)c5Cl)c(CCC#N)cc4c3n2[C@H]2[C@H]3CN[C@@H]2C3)c1C (atropisomer, axis not shown; (Ra)) [Example 77, 3-((Ra)-1-((1R,4R,5S)-2-azabicyclo[2.1.1]hexan-5-yl)-2-((1S,5R,7R)-6-(cyclopropanecarbonyl)-3-(2-methoxy-3-methylpyridin-4-yl)-3,6-diazabicyclo[3.2.1]octan-7-yl)-7-(2,3-dichlorophenyl)-6-fluoro-4-methyl-1H-pyrrolo[3,2-c]quinolin-8-yl)propanenitrile] | † | – | ††
9 | Cc1nc2c(F)c(-c3cccc(Cl)c3Cl)c(CCC#N)cc2c2c1cc([C@H]1[C@H]3C[C@H](CN(c4cc(C(F)(F)F)cc(C(F)(F)F)c4)C3)N1C(=O)C1CC1)n2[C@H]1[C@H]2CN[C@@H]1C2 (atropisomer, axis not shown; (Ra)) [Example 18, 3-((Ra)-1-((1R,4R,5S)-2-azabicyclo[2.1.1]hexan-5-yl)-2-((1S,5R,7R)-3-(3,5-bis(trifluoromethyl)phenyl)-6-(cyclopropanecarbonyl)-3,6-diazabicyclo[3.2.1]octan-7-yl)-7-(2,3-dichlorophenyl)-6-fluoro-4-methyl-1H-pyrrolo[3,2-c]quinolin-8-yl)propanenitrile] | † | – | ††
